Earlier results, collected in patent publication US9445940B2, “System and method for inducing hypothermia with control and determination of catheter pressure” (Zoll Circulation, Inc., priority 2003, dated 2016).

Tested on: shivering threshold
Details: stated as believed, no experiment by the applicant

## CCOC(=O)C1(c2ccccc2)CCN(C)CC1 [Meperidine]
  decrease of shivering threshold relative to vasoconstriction threshold: twice as much as the vasoconstriction threshold
